What was measured:
AMV DNA polymerase = test: Fidelity of in vitro DNA synthesis (error frequency) with AMV DNA polymerase copying synthetic polynucleotide templates
Description: In this invention, the ability of carcinogens to decrease the fidelity of in vitro DNA synthesis will be used to screen for carcinogenic or mutagenic agents. The system uses synthetic polynucleotides of defined composition which may be copied in the test tubes with procaryotic, eucaryotic or viral DNA polymerases. The use of synthetic polynucleotides of defined composition allows the measurement of the simultaneous incorporation of the correct, complementary nucleotide and an incorrect, non-complementary nucleotide. The correct nucleotide is labeled with [α-^32 P] of low specific activity and the incorrect nucleotide is labeled with [^3 H] of high specific activity. Through this double labeled reaction it is possible to determine the simultaneous incorporation of both nucleotides and thus to determine an error frequency. The error frequency may be defined as the ratio of the incorrect/correct nucleotide incorporation. Agents which increase this error frequency may be scored as positive. […] Agents which score positive would be checked using different templates to underscore the positive results. In this system different polymerases will be used as well as different templates. One would expect that most carcinogens would change the fidelity of DNA synthesis with different polymerases as well as with different templates though this need not be the case.
Each assay will consist of a polymerase, a polynucleotide template that only contains one or two nucleotides, a complementary nucleotide and a non-complementary nucleotide as well as magnesium. Both of the nucleotides will be labeled by radioactive precursors and the ratio between the two is to be used for a measure of error frequency in the system. In instances where a template requires two complementary nucleotides, only one will be radioactively labeled.
Reactions (total volume 0.05 ml) which measured complementary nucleotide incorporation contained 50 mM Tris-HCL (pH 8.0), 20 mM KCl, 5 mM dithiothreitol, 5 mM MgCl2, 2μg BSA, […] [α-^32 P] -dTTP (60 dpm/pmole), 1μg poly (A).oligo (dT) (1:1.5 mass ratio), and 0.45 μg of AMV DNA polymerase. For simultaneous quantitation of complementary and non-complementary nucleotide incorporation each reaction was modified to contain 26μM [α-^32 P]dTTP (12 dpm/pmole) and 23μM [^3 H]-dCTP (50,000 dpm/pmole). […] Metals were added directly to the reaction mixture as aqueous solutions of chloride salts. All reactions were incubated for 60 min. at 37° C. Incorporation of radioactive nucleotides into an acid-insoluble and alkali-resistant product was determined by using the precipitation-solubilization procedure as described by Battula and Loeb. All experiments were performed in triplicate and the averages were determined.
In order to determine the effect of different metals on the accuracy of DNA replication, metal cations were added as chloride salts directly to the polymerase reaction. In these experiments, poly (A).oligo (dT) was the template-primer and the simultaneous incorporation of complementary nucleotide, [α-^32 P]-dTMP, and the non-complementery nucleotide, [^3 H]-dCMP, was determined.
The effect of metal salts on the fidelity of DNA synthesis was examined by testing each of the metal salts at a minimum of seven different concentrations.

[1] = known status of the compound; cited from earlier work
[2] = Table 1, template poly [d(A-T)], classes 1-3 not defined
[3] = Table 1, template poly (C).oligo (dG), classes 1-3 not defined
[4] = 0.8 mM Ca(C2 H3 O2)2, template in drawing 3
[5] = 2.4 mM Ca(C2 H3 O2)2, template in drawing 3
[6] = 4.0 mM Ca(C2 H3 O2)2, template in drawing 3
[7] = 4.8 mM Ca(C2 H3 O2)2, template in drawing 3
[8] = 0.08 mM CrCl2, template in drawing 1
[9] = 0.16 mM CrCl2, template in drawing 1
[10] = 0.24 mM CrCl2, template in drawing 1
[11] = 0.64 mM CrCl2, template in drawing 1
[12] = 0.02 mM CuCl2, template in drawing 2
[13] = 0.04 mM CuCl2, template in drawing 2
[14] = 0.08 mM CuCl2, template in drawing 2
[15] = 0.12 mM CuCl2, template in drawing 2
[16] = 8 mM K2 HPO4, template in drawing 4
[17] = 16 mM K2 HPO4, template in drawing 4
[18] = 32 mM K2 HPO4, template in drawing 4
[19] = 40 mM K2 HPO4, template in drawing 4

Q: Which Class (AMV DNA polymerase; [2]) does the source give for `O=S(=O)([O-])[O-].O=S(=O)([O-])[O-].O=S(=O)([O-])[O-].[Al+3].[Al+3]` [(Al)2 (SO4)3] here?
A: 2

Q: And the “Metal Concentration which yielded the largest observed change in error rate” value (AMV DNA polymerase; template poly [d(A-T)])?
A: 10 mM

Q: What about the “Carcinogen or Mutagen” value [1] of the same molecule?
A: -

Q: Which results are given for `N.N.O=S(=O)(O)O` [(NH4)2 SO4]?
A: Class (AMV DNA polymerase; [3]): 2; Metal Concentration which yielded the largest observed change in error rate (AMV DNA polymerase; template poly (C).oligo (dG)): 120 mM; Carcinogen or Mutagen [1]: -

Q: With `O=[N+]([O-])[O-].[Ag+]` [AgNO3] as the molecule, how does the Class (AMV DNA polymerase; [2]) read?
A: 1

Q: What about the “Metal Concentration which yielded the largest observed change in error rate” value (AMV DNA polymerase; template poly [d(A-T)]) of the same molecule?
A: 0.03 mM

Q: What about the “Carcinogen or Mutagen” value [1] of the same molecule?
A: +

Q: For `CC(=O)O` [Ca(C2 H3 O2)2], which “Complementary Deoxynucleotide Incorporation” value (AMV DNA polymerase; [4]) is on record?
A: 217 pmol

Q: And the “Error Frequency” value (AMV DNA polymerase; [4])?
A: 1/986

Q: What about the “Non-complementary Deoxynucleotide Incorporation” value (AMV DNA polymerase; [4]) of the same molecule?
A: 0.22 pmol

Q: And the “Complementary Deoxynucleotide Incorporation” value (AMV DNA polymerase; [5])?
A: 78 pmol

Q: And the “Error Frequency” value (AMV DNA polymerase; [5])?
A: 1/975

Q: What about the “Non-complementary Deoxynucleotide Incorporation” value (AMV DNA polymerase; [5]) of the same molecule?
A: 0.08 pmol

Q: What about the “Complementary Deoxynucleotide Incorporation” value (AMV DNA polymerase; [6]) of the same molecule?
A: 39 pmol

Q: And the “Error Frequency” value (AMV DNA polymerase; [6])?
A: 1/975

Q: And the “Non-complementary Deoxynucleotide Incorporation” value (AMV DNA polymerase; [6])?
A: 0.04 pmol

Q: What about the “Complementary Deoxynucleotide Incorporation” value (AMV DNA polymerase; [7]) of the same molecule?
A: 17 pmol

Q: What about the “Error Frequency” value (AMV DNA polymerase; [7]) of the same molecule?
A: 1/850

Q: And the “Non-complementary Deoxynucleotide Incorporation” value (AMV DNA polymerase; [7])?
A: 0.02 pmol

Q: And the Class (AMV DNA polymerase; Table 2, classes not defined)?
A: 2

Q: For `CC(=O)[O-].CC(=O)[O-].[Cd+2]` [Cd(C2 H3 O2)2], which Class (AMV DNA polymerase; [3]) is on record?
A: 1

Q: What about the “Metal Concentration which yielded the largest observed change in error rate” value (AMV DNA polymerase; template poly (C).oligo (dG)) of the same molecule?
A: 0.24 mM

Q: And the “Carcinogen or Mutagen” value [1]?
A: +

Q: Which Class (AMV DNA polymerase; [3]) does the source give for `[Cl][Cd][Cl]` [CdCl2] here?
A: 1

Q: What about the “Metal Concentration which yielded the largest observed change in error rate” value (AMV DNA polymerase; template poly (C).oligo (dG)) of the same molecule?
A: 0.04 mM

Q: And the “Carcinogen or Mutagen” value [1]?
A: +

Q: For `[Cl][Cr][Cl]` [CrCl2], which “Complementary Deoxynucleotide Incorporation” value (AMV DNA polymerase; [8]) is on record?
A: 133 pmol

Q: And the “Error Frequency” value (AMV DNA polymerase; [8])?
A: 1/578

Q: And the “Non-complementary Deoxynucleotide Incorporation” value (AMV DNA polymerase; [8])?
A: 0.23 pmol

Q: What about the “Complementary Deoxynucleotide Incorporation” value (AMV DNA polymerase; [9]) of the same molecule?
A: 169 pmol

Q: What about the “Error Frequency” value (AMV DNA polymerase; [9]) of the same molecule?
A: 1/528

Q: What about the “Non-complementary Deoxynucleotide Incorporation” value (AMV DNA polymerase; [9]) of the same molecule?
A: 0.32 pmol

Q: What about the “Complementary Deoxynucleotide Incorporation” value (AMV DNA polymerase; [10]) of the same molecule?
A: 127 pmol

Q: And the “Error Frequency” value (AMV DNA polymerase; [10])?
A: 1/363

Q: What about the “Non-complementary Deoxynucleotide Incorporation” value (AMV DNA polymerase; [10]) of the same molecule?
A: 0.35 pmol

Q: What about the “Complementary Deoxynucleotide Incorporation” value (AMV DNA polymerase; [11]) of the same molecule?
A: 71 pmol

Q: What about the “Error Frequency” value (AMV DNA polymerase; [11]) of the same molecule?
A: 1/192

Q: And the “Non-complementary Deoxynucleotide Incorporation” value (AMV DNA polymerase; [11])?
A: 0.37 pmol

Q: What about the Class (AMV DNA polymerase; [2]) of the same molecule?
A: 1

Q: What about the “Metal Concentration which yielded the largest observed change in error rate” value (AMV DNA polymerase; template poly [d(A-T)]) of the same molecule?
A: 0.64 mM

Q: And the “Carcinogen or Mutagen” value [1]?
A: +

Q: Which Class (AMV DNA polymerase; [2]) does the source give for `[O]=[Cr](=[O])=[O]` [CrO3] here?
A: 1

Q: And the “Metal Concentration which yielded the largest observed change in error rate” value (AMV DNA polymerase; template poly [d(A-T)])?
A: 16 mM

Q: What about the “Carcinogen or Mutagen” value [1] of the same molecule?
A: +

Q: For `CC(=O)[O-].CC(=O)[O-].[Cu+2]` [Cu(C2 H3 O2)2], which Class (AMV DNA polymerase; [3]) is on record?
A: 1

Q: And the “Metal Concentration which yielded the largest observed change in error rate” value (AMV DNA polymerase; template poly (C).oligo (dG))?
A: 0.12 mM

Q: What about the “Carcinogen or Mutagen” value [1] of the same molecule?
A: ±

Q: Which “Complementary Deoxynucleotide Incorporation” value (AMV DNA polymerase; [12]) does the source give for `[Cl][Cu][Cl]` [CuCl2] here?
A: 385 pmol

Q: And the “Error Frequency” value (AMV DNA polymerase; [12])?
A: 1/875

Q: What about the “Non-complementary Deoxynucleotide Incorporation” value (AMV DNA polymerase; [12]) of the same molecule?
A: 0.44 pmol

Q: What about the “Complementary Deoxynucleotide Incorporation” value (AMV DNA polymerase; [13]) of the same molecule?
A: 130 pmol

Q: What about the “Error Frequency” value (AMV DNA polymerase; [13]) of the same molecule?
A: 1/722

Q: What about the “Non-complementary Deoxynucleotide Incorporation” value (AMV DNA polymerase; [13]) of the same molecule?
A: 0.18 pmol

Q: And the “Complementary Deoxynucleotide Incorporation” value (AMV DNA polymerase; [14])?
A: 54 pmol

Q: And the “Error Frequency” value (AMV DNA polymerase; [14])?
A: 1/540

Q: And the “Non-complementary Deoxynucleotide Incorporation” value (AMV DNA polymerase; [14])?
A: 0.10 pmol

Q: What about the “Complementary Deoxynucleotide Incorporation” value (AMV DNA polymerase; [15]) of the same molecule?
A: 36 pmol

Q: What about the “Error Frequency” value (AMV DNA polymerase; [15]) of the same molecule?
A: 1/450

Q: What about the “Non-complementary Deoxynucleotide Incorporation” value (AMV DNA polymerase; [15]) of the same molecule?
A: 0.08 pmol

Q: What about the Class (AMV DNA polymerase; [3]) of the same molecule?
A: 1

Q: And the “Metal Concentration which yielded the largest observed change in error rate” value (AMV DNA polymerase; template poly (C).oligo (dG))?
A: 0.08 mM

Q: And the “Carcinogen or Mutagen” value [1]?
A: ±

Q: Which Class (AMV DNA polymerase; [3]) does the source give for `[Cl][Fe][Cl]` [FeCl2] here?
A: 2

Q: What about the “Metal Concentration which yielded the largest observed change in error rate” value (AMV DNA polymerase; template poly (C).oligo (dG)) of the same molecule?
A: 4 mM

Q: And the “Carcinogen or Mutagen” value [1]?
A: ±

Q: With `O=P([O-])([O-])O.[K+].[K+]` [K2 HPO4] as the molecule, how does the “Complementary Deoxynucleotide Incorporation” value (AMV DNA polymerase; [16]) read?
A: 179 pmol

Q: And the “Error Frequency” value (AMV DNA polymerase; [16])?
A: 1/814

Q: What about the “Non-complementary Deoxynucleotide Incorporation” value (AMV DNA polymerase; [16]) of the same molecule?
A: 0.22 pmol

Q: What about the “Complementary Deoxynucleotide Incorporation” value (AMV DNA polymerase; [17]) of the same molecule?
A: 180 pmol

Q: And the “Error Frequency” value (AMV DNA polymerase; [17])?
A: 1/783

Q: And the “Non-complementary Deoxynucleotide Incorporation” value (AMV DNA polymerase; [17])?
A: 0.23 pmol

Q: What about the “Complementary Deoxynucleotide Incorporation” value (AMV DNA polymerase; [18]) of the same molecule?
A: 107 pmol

Q: What about the “Error Frequency” value (AMV DNA polymerase; [18]) of the same molecule?
A: 1/823

Q: What about the “Non-complementary Deoxynucleotide Incorporation” value (AMV DNA polymerase; [18]) of the same molecule?
A: 0.13 pmol

Q: And the “Complementary Deoxynucleotide Incorporation” value (AMV DNA polymerase; [19])?
A: 48 pmol

Q: And the “Error Frequency” value (AMV DNA polymerase; [19])?
A: 1/960

Q: What about the “Non-complementary Deoxynucleotide Incorporation” value (AMV DNA polymerase; [19]) of the same molecule?
A: 0.05 pmol

Q: What about the Class (AMV DNA polymerase; [2]) of the same molecule?
A: 2

Q: What about the Class (AMV DNA polymerase; Table 2, classes not defined) of the same molecule?
A: 2

Q: What about the “Metal Concentration which yielded the largest observed change in error rate” value (AMV DNA polymerase; template poly [d(A-T)]) of the same molecule?
A: 40 mM

Q: What about the “Carcinogen or Mutagen” value [1] of the same molecule?
A: -
